Assay results as given in patent publication US11905264B1, “N′-(2-(5-(4-chlorophenyl)-1,3,4-oxadiazol-2-ylthio)acetoxy)-4-nitrobenzimidamide as an antimicrobial compound” (KING FAISAL UNIVERSITY, priority 2023, dated 2024).

Experiments:
Format in all cases: cell-based
Pseudomonas aeruginosa = experiment: Agar plate disc-diffusion, antibacterial inhibition zone; conditions: Gram negative, nutrient agar, 37° C.
Method: (§1) The agar plate disc-diffusion method was applied. […] The discs were then placed onto the surface of agar plates (nutrient agar for bacteria and Sabouraud's dextrose agar for fungi) seeded with the test organism. Each plate contained 15 mL of the agar medium, previously seeded with 0.2 mL of the broth culture of each organism pregrown for 18 hours. The plates were incubated at 37° C. for 48 hours and 72 hours for fungi. The inhibition zones were measured in mm. Discs impregnated with DMSO were used as a control, and their inhibition zone was subtracted from the tested compound's actual inhibition zone.

Escherichia coli = experiment: as above; conditions: Gram negative, nutrient agar, 37° C.
Method: as §1

Bacillus cereus = experiment: as above; conditions: Gram positive, nutrient agar, 37° C.
Method: as §1

Staphylococcus aureus = experiment: as above; conditions: Gram positive, nutrient agar, 37° C.
Method: as §1

Aspergillus flavus = experiment: Agar plate disc-diffusion, antifungal inhibition zone; conditions: Sabouraud's dextrose agar, 72 hours
Method: as §1

[1] = system: Chrysosporium keratinophilum; experiment: as above; conditions: Sabouraud's dextrose agar, 72 hours
Method: as §1

[2] = A = concentration of comp. = 10,000 μL
[3] = B = concentration of comp. = 30,000 μL
[4] = C = concentration of comp. = 50,000 μL

N/C(=N\OC(=O)CSc1nnc(-c2ccc(Cl)cc2)o1)c1ccc([N+](=O)[O-])cc1 [Compound 3, N′-(2-(5-(4-chlorophenyl)-1,3,4-oxadiazol-2-ylthio)acetoxy)-4-nitrobenzimidamide]
inhibition zone, Pseudomonas aeruginosa, A (Pseudomonas aeruginosa; [2]): 22 mm | inhibition zone, Pseudomonas aeruginosa, B (Pseudomonas aeruginosa; [3]): 26 mm | inhibition zone, Pseudomonas aeruginosa, C (Pseudomonas aeruginosa; [4]): 40 mm | inhibition zone, Escherichia coli, A (Escherichia coli; [2]): 27 mm | inhibition zone, Escherichia coli, B (Escherichia coli; [3]): 31 mm | inhibition zone, Escherichia coli, C (Escherichia coli; [4]): 50 mm | inhibition zone, Bacillus Cereus, A (Bacillus cereus; [2]): 27 mm | inhibition zone, Bacillus Cereus, B (Bacillus cereus; [3]): 29 mm | inhibition zone, Bacillus Cereus, C (Bacillus cereus; [4]): 40 mm | inhibition zone, Staphylococcus aureus, A (Staphylococcus aureus; [2]): 17 mm | inhibition zone, Staphylococcus aureus, B (Staphylococcus aureus; [3]): 20 mm | inhibition zone, Staphylococcus aureus, C (Staphylococcus aureus; [4]): 37 mm | inhibition zone, Aspergillus flavus, A (Aspergillus flavus; [2]): 23 mm | inhibition zone, Aspergillus flavus, B (Aspergillus flavus; [3]): 27 mm | inhibition zone, Aspergillus flavus, C (Aspergillus flavus; [4]): 39 mm | inhibition zone, Chrysosporium keratinophilum, A ([1]; A =): 26 mm | inhibition zone, Chrysosporium keratinophilum, B [1, 3]: 28 mm | inhibition zone, Chrysosporium keratinophilum, C [1, 4]: 41 mm
